Drawing on ChEMBL document CHEMBL4477208, “Discovery and Rational Design of Pteridin-7(8H)-one-Based Inhibitors Targeting FMS-like Tyrosine Kinase 3 (FLT3) and Its Mutants” (J Med Chem, 2016), this text covers IC50, inhibition and Activity for 35 compounds.

For experiment [1], the system named is MV4-11. As to the kind of experiment: cells. The conditions noted are these: Homo sapiens, MV4-11, 72 h.
Description: Antiproliferative activity against human MV4-11 cells harboring FLT3-ITD mutant after 72 hrs by MTT assay
The subject of experiment [2] is K562. The experiment is described as follows: cells. The conditions noted are these: Homo sapiens, K562, 72 h.
Description: Antiproliferative activity against FLT3-deficient human K562 cells after 72 hrs by MTT assay
The subject of experiment [3] is WI-38. The experiment is described as follows: cells. To be noted: Homo sapiens, WI-38, 72 h.
Description: Antiproliferative activity against human WI38 cells after 72 hrs by SRB assay
The target of experiment [4] is T1, Receptor-type tyrosine-protein kinase FLT3 (Homo sapiens, UniProt P36888).
T1 sequence (P36888 whole entry): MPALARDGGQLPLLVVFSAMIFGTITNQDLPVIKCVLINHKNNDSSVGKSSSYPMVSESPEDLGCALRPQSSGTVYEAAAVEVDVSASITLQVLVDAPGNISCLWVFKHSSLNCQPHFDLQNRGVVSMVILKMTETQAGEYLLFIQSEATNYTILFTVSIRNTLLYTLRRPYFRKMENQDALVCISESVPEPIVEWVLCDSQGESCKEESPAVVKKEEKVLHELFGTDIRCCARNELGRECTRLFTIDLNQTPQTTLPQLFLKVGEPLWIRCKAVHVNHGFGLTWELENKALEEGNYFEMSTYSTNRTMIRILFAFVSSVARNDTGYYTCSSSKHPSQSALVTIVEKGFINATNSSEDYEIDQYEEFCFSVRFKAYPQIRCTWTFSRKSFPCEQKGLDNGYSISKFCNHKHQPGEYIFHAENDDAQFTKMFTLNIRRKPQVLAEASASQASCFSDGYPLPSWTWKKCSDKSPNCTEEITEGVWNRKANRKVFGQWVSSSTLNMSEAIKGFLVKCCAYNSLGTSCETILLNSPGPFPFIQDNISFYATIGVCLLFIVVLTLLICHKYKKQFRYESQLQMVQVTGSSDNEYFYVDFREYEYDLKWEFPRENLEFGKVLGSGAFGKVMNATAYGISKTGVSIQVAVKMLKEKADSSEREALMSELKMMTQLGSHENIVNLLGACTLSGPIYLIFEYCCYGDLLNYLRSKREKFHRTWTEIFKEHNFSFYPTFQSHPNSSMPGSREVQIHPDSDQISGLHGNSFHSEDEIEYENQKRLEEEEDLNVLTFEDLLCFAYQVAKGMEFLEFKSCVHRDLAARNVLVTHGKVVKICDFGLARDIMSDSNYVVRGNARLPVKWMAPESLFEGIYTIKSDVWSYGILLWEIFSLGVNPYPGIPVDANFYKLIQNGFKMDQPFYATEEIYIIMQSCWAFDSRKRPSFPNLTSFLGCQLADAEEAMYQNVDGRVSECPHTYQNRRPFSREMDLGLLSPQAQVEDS
Description: Inhibition of human N-terminal GST-tagged FLT3 (564 to 993 residues) expressed in baculovirus expression system using peptide FAM-P2 as substrate incubated for 10 mins followed by substrate addition by mobility shift assay

Experiment [5] addresses Receptor-type tyrosine-protein kinase FLT3 (Homo sapiens) (UniProt P36888). As to the kind of experiment: Inhibition of FLT3 (unknown origin) at 10 uM.
For experiment [6] the target is unchanged. As to the kind of experiment: Inhibition of FLT3 (unknown origin) at 1 uM.
Experiment [7] has as its system MV4-11. As to the kind of experiment: Cell cycle arrest in human MV4-11 cells at 1000 nM after 48 hrs by PI/RNase staining based FACS analysis. The class given is functional. On the technique in general: A flow cytometer gives signals particle by particle.
Experiment [8] deals with MV4-11. As to the kind of experiment: Induction of apoptosis in human MV4-11 cells at 1000 nM after 48 hrs by annexin V/propidium iodide staining based FACS analysis. The class given is functional, cell-based.

By pIC50 is commonly meant the negative decadic logarithm of the IC50, by convention in mol/L. Higher therefore signals a low IC50. In general, inhibition refers to the percentage by which the read-out fell short of the control.

Structures are written as SMILES. pIC50: −log10 of the molar value. Active and inactive are the calls of the source. The calls are words filed in the database; no cut-off is given here. Where only a bound is given, the exact number is not on record here.

Turning to `C=CC(=O)Nc1ccc(-n2c(=O)cnc3cnc(Nc4ccccc4)nc32)cc1`, the negative-log IC50 (pIC50) in experiment [1] is less than 5.00; in experiment [2], less than 5.00; in experiment [3] it was less than 5.00; in experiment [4], 6.78.

With `CN1CCN(c2ccc(Nc3ncc4ncc(=O)n(-c5ccc(CN)cc5)c4n3)cc2)CC1`, the values for the negative logarithm of the IC50 (pIC50) in experiment [1], in experiment [2] and in experiment [3] were 6.49, 5.00 and less than 5.00, respectively.

For the compound `C=CC(=O)Nc1cccc(-n2c(=O)cnc3cnc(Nc4ccc(NC(C)=O)cc4)nc32)c1`, the pIC50 in experiment [1] was 5.13; in experiment [2], less than 5.00; in experiment [3], less than 5.00; in experiment [4] it was 5.26.

In the case of `CN1CCN(c2ccc(Nc3ncc4ncc(=O)n(-c5ccc(N)cc5)c4n3)cc2Cl)CC1`, the pIC50 is 7.01 in experiment [1], less than 5.00 in experiment [2] and 5.46 in experiment [3].

As for `C=CC(=O)Nc1cccc(-n2c(=O)cnc3cnc(Nc4ccc(N5CCCCC5)cc4)nc32)c1`, the negative logarithm of the IC50 (pIC50) in experiment [1] was less than 5.00; in experiment [2], less than 5.00; in experiment [3], less than 5.00; in experiment [4], 5.76.

Turning to `C=CC(=O)Nc1cccc(-n2c(=O)cnc3cnc(Nc4ccc(N(CC)CC)cc4)nc32)c1`, the pIC50 is 5.26 in experiment [1], less than 5.00 in experiment [2], less than 5.00 in experiment [3] and 5.98 in experiment [4].

Take `C=CC(=O)Nc1ccc(-n2c(=O)cnc3cnc(Nc4ccc(N5CCN(C)CC5)cc4OC)nc32)cc1`: the negative logarithm of the IC50 (pIC50) in experiment [1] is 6.09; in experiment [2], less than 5.00; in experiment [3], less than 5.00; in experiment [4], 6.82.

Regarding `CN1CCN(c2ccc(Nc3ncc4ncc(=O)n(-c5ccc(N)cc5)c4n3)cc2F)CC1`, the pIC50 was 5.85 in experiment [1], less than 5.00 in experiment [2] and less than 5.00 in experiment [3].

For the compound `C=CC(=O)Nc1cccc(-n2c(=O)cnc3cnc(Nc4ccc(N5CCN(C)CC5)cc4)nc32)c1`, the pIC50 in experiment [1] is 6.10; in experiment [2] it was less than 5.00; in experiment [3], less than 5.00; in experiment [4], 6.51. Besides, the inhibition in experiment [5] was 99%; in experiment [6], 82%.

On to `C=CC(=O)Nc1cccc(-n2c(=O)cnc3cnc(Nc4ccc(N5CCOCC5)cc4)nc32)c1`, for which the pIC50 in experiment [1] is less than 5.00; in experiment [2] it was less than 5.00; in experiment [3], less than 5.00; in experiment [4] it was 5.94.

On to `C=CC(=O)Nc1ccc(-n2c(=O)cnc3cnc(Nc4ccc(N5CCN(C)CC5)cc4)nc32)cc1`, for which the pIC50 was 6.08 in experiment [1], less than 5.00 in experiment [2], less than 5.00 in experiment [3] and 7.33 in experiment [4].

Regarding `CN1CCN(c2ccc(Nc3ncc4ncc(=O)n(-c5ccc(N)cc5)c4n3)cc2)CC1`, the outcome in experiment [7] and in experiment [8] was Active. In addition, the figures for the negative logarithm of the IC50 (pIC50) in experiment [1], in experiment [2] and in experiment [3] were 6.53, less than 5.00 and less than 5.00, respectively.

`C=CC(=O)Nc1cccc(-n2c(=O)cnc3cnc(Nc4ccccc4)nc32)c1`: the negative logarithm of the IC50 (pIC50) was 5.26 in experiment [1], less than 5.00 in experiment [2], less than 5.00 in experiment [3] and 5.53 in experiment [4].

In the case of `COc1cc2c(N3CCN(C(=O)Nc4ccc(OC(C)C)cc4)CC3)ncnc2cc1OCCCN1CCCCC1` [TANDUTINIB], the values for the negative logarithm of the IC50 (pIC50) in experiment [1], in experiment [2] and in experiment [3] were 6.52, less than 5.00 and less than 5.00, respectively.

As for `C=CC(=O)Nc1ccc(-n2c(=O)cnc3cnc(Nc4ccc(Cl)cc4)nc32)cc1`, the pIC50 in experiment [1] was less than 5.00; in experiment [2], less than 5.00; in experiment [3], less than 5.00; in experiment [4], 6.42.

Consider `C=CC(=O)Nc1cccc(-n2c(=O)cnc3cnc(Nc4ccc(CC(N)=O)cc4)nc32)c1`, for which the negative logarithm of the IC50 (pIC50) in experiment [1], in experiment [2] and in experiment [3] was less than 5.00 each time.

Turning to `C=CC(=O)Nc1cccc(-n2c(=O)cnc3cnc(Nc4ccc(N5CCCC5)cc4)nc32)c1`, the pIC50 is less than 5.00 in experiment [1], less than 5.00 in experiment [2], less than 5.00 in experiment [3] and 5.82 in experiment [4].

As to `CN1CCN(c2ccc(Nc3ncc4ncc(=O)n(-c5cccc(N)c5)c4n3)cc2)CC1`, the results for the negative logarithm of the IC50 (pIC50) in experiment [1], in experiment [2] and in experiment [3] were 6.42, less than 5.00 and less than 5.00, respectively.

As to `CN1CCN(c2ccc(Nc3ncc4ncc(=O)n(-c5ccc(N6CCNCC6)cc5)c4n3)cc2)CC1`, the values for the pIC50 in experiment [1], in experiment [2] and in experiment [3] were 6.77, less than 5.00 and less than 5.00, respectively.

With `COc1ccc(Nc2ncc3ncc(=O)n(-c4cccc(NC(=O)/C=C/CN(C)C)c4)c3n2)cc1`, the pIC50 was 5.57 in experiment [1], less than 5.00 in experiment [2] and less than 5.00 in experiment [3].

`COc1ccc(Nc2ncc3ncc(=O)n(-c4ccc(N)cc4)c3n2)cc1`: the negative-log IC50 (pIC50) is 5.16 in experiment [1], less than 5.00 in experiment [2], less than 5.00 in experiment [3] and 7.54 in experiment [4].

Regarding `COc1cc(Nc2ncc3ncc(=O)n(-c4ccc(N)cc4)c3n2)ccc1N1CCN(C)CC1`, the negative-log IC50 (pIC50) was 7.03 in experiment [1], less than 5.00 in experiment [2] and less than 5.00 in experiment [3].

Regarding `C=CC(=O)Nc1ccc(-n2c(=O)cnc3cnc(Nc4ccc(OC)cc4)nc32)cc1`, the pIC50 in experiment [1] was 5.42; in experiment [2], less than 5.00; in experiment [3] it was less than 5.00; in experiment [4], 6.97.

As to `COc1ccc(Nc2ncc3ncc(=O)n(-c4ccc(N)cc4)c3n2)c(C)c1`, the negative logarithm of the IC50 (pIC50) in experiment [1] is 5.22; in experiment [2], less than 5.00; in experiment [3] it was less than 5.00.

As for `C=CC(=O)Nc1cccc(-n2c(=O)cnc3cnc(Nc4ccc(N5CCN(C)CC5)cc4OC)nc32)c1`, the pIC50 in experiment [1] was 5.54; in experiment [2], less than 5.00; in experiment [3] it was 5.08; in experiment [4], 5.88.

In the case of `COc1ccc(Nc2ncc3ncc(=O)n(-c4ccc(NC(C)=O)cc4)c3n2)cc1`, the pIC50 in experiment [1] was 5.41; in experiment [2], less than 5.00; in experiment [3] it was less than 5.00.

Turning to `CN1CCN(c2ccc(Nc3ncc4ncc(=O)n(-c5ccc(NS(C)(=O)=O)cc5)c4n3)cc2)CC1`, the pIC50 in experiment [1] is 5.94; in experiment [2] it was less than 5.00; in experiment [3], less than 5.00.

Turning to `COc1ccc(Nc2ncc3ncc(=O)n(-c4ccc(NC(=O)/C=C/CN(C)C)cc4)c3n2)cc1`, the pIC50 is 5.66 in experiment [1], less than 5.00 in experiment [2], less than 5.00 in experiment [3] and 6.74 in experiment [4].

On to `CC(=O)Nc1ccc(-n2c(=O)cnc3cnc(Nc4ccc(N5CCN(C)CC5)cc4)nc32)cc1`, for which the results for the pIC50 in experiment [1], in experiment [2] and in experiment [3] were 6.38, less than 5.00 and less than 5.00, respectively.

For `COc1ccc(Nc2ncc3ncc(=O)n(-c4ccc(NS(C)(=O)=O)cc4)c3n2)cc1`, the pIC50 in experiment [1] is 5.53; in experiment [2], less than 5.00; in experiment [3], less than 5.00.

Take `C=CC(=O)Nc1cccc(-n2c(=O)cnc3cnc(Nc4ccc(Cl)cc4)nc32)c1`: the negative-log IC50 (pIC50) in experiment [1] was 5.39; in experiment [2] it was less than 5.00; in experiment [3] it was less than 5.00; in experiment [4], 5.45.

Consider `COc1ccc(Nc2ncc3ncc(=O)n(-c4ccc(N)cc4)c3n2)cc1Cl`, for which the negative logarithm of the IC50 (pIC50) in experiment [1] was 5.71; in experiment [2], less than 5.00; in experiment [3], less than 5.00.

In the case of `C=CC(=O)Nc1cccc(-n2c(=O)cnc3cnc(Nc4ccc(OC)cc4)nc32)c1`, the negative-log IC50 (pIC50) in experiment [1] is 5.58; in experiment [2], less than 5.00; in experiment [3], 5.06; in experiment [4], 5.73.

Consider `C=CC(=O)Nc1ccc(-n2c(=O)cnc3cnc(Nc4ccc(N5CCOCC5)cc4)nc32)cc1`, for which the pIC50 is 5.46 in experiment [1], less than 5.00 in experiment [2], less than 5.00 in experiment [3] and 6.76 in experiment [4].

As to `COc1ccc(Nc2ncc3ncc(=O)n(-c4cccc(N)c4)c3n2)cc1`, the pIC50 in experiment [1] is 5.46; in experiment [2] it was less than 5.00; in experiment [3] it was less than 5.00; in experiment [4], 7.47.
